The test system of test [1] is EBF1-PDGFRB. The settings on record: Ba/F3 cells with mutant fusion; cell viability read-out; gatekeeper; stated gain.
The subject of test [2] is EBF1-PDGFRB. Nature of the test: viability assay of transformed Ba/F3 cells. The following applies: Ba/F3 cells with wild-type fusion; cell viability read-out. Format: cell-based, Homo sapiens.

Where two headings read alike, the source gives them in different places.

Turning to `Cc1ccc(C(=O)Nc2ccc(CN3CCN(C)CC3)c(C(F)(F)F)c2)cc1C#Cc1cnc2cccnn12` [ponatinib], the results for the IC50 in test [1] and in test [2] were 23.93 nM and 5.73 nM, respectively. `Cc1nc(Nc2ncc(C(=O)Nc3c(C)cccc3Cl)s2)cc(N2CCN(CCO)CC2)n1` [dasatinib]: the IC50 (usually the concentration that inhibits the measured activity by half) in test [2] was 5.26 nM.
